Reference: patent US20170022171A1, “2,5-DISUBSTITUTED CYCLOPENTANECARBOXYLIC ACIDS AND THEIR USE” (Bayer Pharma Aktiengesellschaft, priority 2014, published 2017)

Legend:
Assay type in all cases: biochemical
[1] = molecular target: T1, MMP-7 (Homo sapiens, UniProt P09237); assay: In vitro MMP-7 inhibition test
T1 construct: purchased R&D Systems 907-MP
T1 sequence (P09237 95-267): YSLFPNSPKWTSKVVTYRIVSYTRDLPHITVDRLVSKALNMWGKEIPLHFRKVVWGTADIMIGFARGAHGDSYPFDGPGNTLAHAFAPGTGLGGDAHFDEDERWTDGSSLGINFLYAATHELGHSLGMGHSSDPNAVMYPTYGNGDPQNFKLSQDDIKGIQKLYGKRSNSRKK
Text: (§1) The MMP-mediated amidolytic cleavage of a suitable peptide substrate leads to an increase in fluorescent light here too. The signal intensity of the fluorescent light is directly proportional to the enzyme activity. The active concentration of a test compound at which half the enzyme is inhibited (50% signal intensity of the fluorescent light) is reported as the IC50 value.
Recombinant MMP-7 (from R&D Systems, 907-MP) is chemically activated in accordance with the manufacturer's instructions using APMA. 1 μl of the test compound to be analysed (as a solution in DMSO, suitable concentrations, for example, 1 nM to 30 μM) is pipetted into 24 μl of activated enzyme (final concentration, for example, 0.5 nM) in reaction buffer (50 mM Tris/HCl pH 7.5, 10 mM CaCl2, 150 mM NaCl, 0.05% Brij®-35) in a white 384-hole microtiter plate (MTP). The enzymatic reaction is started by adding the intramolecularly quenched Mca-Pro-Leu-Gly-Leu-Dpa(Dnp)-Ala-Arg-NH2 substrate (final concentration, for example, 10 μM; R&D Systems, ES-001), so as to result in a total test volume of […] The course of the MMP-7 reaction is measured by measuring the fluorescence intensity (excitation 320 nm, emission 410 nm) over a suitable period of time (for example over 120 min at a temperature of 32° C.).

[2] = molecular target: T2, MMP-2 (Homo sapiens, UniProt P08253); assay: In vitro MMP-2 inhibition test
T2 construct: purchased R&D Systems 902-MP
T2 sequence (P08253 110-660): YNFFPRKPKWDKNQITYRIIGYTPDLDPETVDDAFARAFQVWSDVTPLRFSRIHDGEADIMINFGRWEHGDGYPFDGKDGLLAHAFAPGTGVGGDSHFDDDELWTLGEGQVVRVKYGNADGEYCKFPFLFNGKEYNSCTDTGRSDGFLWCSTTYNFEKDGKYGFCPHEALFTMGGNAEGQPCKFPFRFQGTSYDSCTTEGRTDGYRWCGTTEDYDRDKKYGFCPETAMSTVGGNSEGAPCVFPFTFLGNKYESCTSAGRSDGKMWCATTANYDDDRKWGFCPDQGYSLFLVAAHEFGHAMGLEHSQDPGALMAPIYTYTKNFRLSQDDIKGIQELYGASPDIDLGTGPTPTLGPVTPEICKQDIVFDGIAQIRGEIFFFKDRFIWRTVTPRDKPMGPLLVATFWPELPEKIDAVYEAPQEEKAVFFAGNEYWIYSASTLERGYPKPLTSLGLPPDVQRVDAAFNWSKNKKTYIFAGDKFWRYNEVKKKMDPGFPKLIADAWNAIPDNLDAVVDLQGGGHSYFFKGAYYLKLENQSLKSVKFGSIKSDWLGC
Text: as §1
(§2) Recombinant MMP-2 (from R&D Systems, 902-MP) is chemically activated in accordance with the manufacturer's instructions using APMA. 1 μl of the test compound to be analysed (as a solution in DMSO, suitable concentrations, for example, 1 nM to 30 μM) is pipetted into 24 μl of activated enzyme (final concentration, for example, 2 nM) in reaction buffer (50 mM Tris/HCl pH 7.5, 10 mM CaCl2, 150 mM NaCl, 0.05% Brij®-35) in a white 384-hole microtiter plate (MTP). The enzymatic reaction is started by adding the intramolecularly quenched Mca-Pro-Leu-Gly-Leu-Dpa(Dnp)-Ala-Arg-NH2 substrate (final concentration, for example, 10 μM; R&D Systems, ES-001), so as to result in a total test volume of 50 μl. The course of the MMP-2 reaction is measured by measuring the fluorescence intensity (excitation 320 nm, emission 410 nm) over a suitable period of time (for example over 120 min at a temperature of 32° C.).

[3] = molecular target: T3, MMP-1 (Homo sapiens, UniProt P03956); assay: In vitro MMP-1 inhibition test
T3 construct: purchased R&D Systems 901-MP
T3 sequence (P03956 100-469): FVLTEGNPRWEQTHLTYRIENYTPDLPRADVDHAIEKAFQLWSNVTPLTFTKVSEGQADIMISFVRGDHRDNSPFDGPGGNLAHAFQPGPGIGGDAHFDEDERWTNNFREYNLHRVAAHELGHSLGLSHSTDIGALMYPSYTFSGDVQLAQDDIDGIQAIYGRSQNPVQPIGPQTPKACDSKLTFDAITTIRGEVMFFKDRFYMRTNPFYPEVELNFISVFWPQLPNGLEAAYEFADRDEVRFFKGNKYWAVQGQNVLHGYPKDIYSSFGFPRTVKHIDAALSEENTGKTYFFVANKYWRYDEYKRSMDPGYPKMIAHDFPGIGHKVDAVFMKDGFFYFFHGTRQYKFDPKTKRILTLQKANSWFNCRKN
Text: as §1
as §2, with “MMP-1” for “MMP-2”, “901-MP)” for “902-MP)”

O=C(O)[C@@H]1[C@@H](Cn2nnc3ccc(C(F)(F)F)cc3c2=O)CC[C@H]1C(=O)c1ccc(OCCC2CCCCC2)cc1 (single isomer, unassigned) [Example 52, (+)-(1RS,2RS,5SR)-2-[4-(2-Cyclohexylethoxy)benzoyl]-5-{[4-oxo-6-(trifluoromethyl)-1,2,3-benzotriazin-3(4H)-yl]methyl}cyclopentanecarboxylic acid]
IC50 [1]: 340 nM
IC50 [2]: 1600 nM
IC50 [3]: 6300 nM

O=C(O)[C@H]1[C@H](Cn2nnc3ccccc3c2=O)CC[C@@H]1C(=O)c1ccc(OCCC2CCCCC2)cc1 (racemic) [Example 5, (+/−)-(1RS,2RS,5SR)-2-[4-(2-Cyclohexylethoxy)benzoyl]-5-[(4-oxo-1,2,3-benzotriazin-3(4H)-yl)methyl]cyclopentanecarboxylic acid]
IC50 [1]: 2400 nM
IC50 [2]: 220 nM
IC50 [3]: > 40000 nM

O=C(O)[C@@H]1[C@@H](Cn2nnc3ccc(C(F)(F)F)cc3c2=O)CC[C@H]1C(=O)c1ccc(OCc2ccc(F)cc2)cc1 (single isomer, unassigned) [Example 13, (+)-(1RS,2RS,5SR)-2-{4-[(4-Fluorobenzyl)oxy]benzoyl}-5-{[4-oxo-6-(trifluoromethyl)-1,2,3-benzotriazin-3(4H)-yl]methyl}cyclopentanecarboxylic acid]
IC50 [1]: 120 nM
IC50 [2]: 80 nM
IC50 [3]: 3300 nM

(+)-(1RS,2RS,5SR)-2-{4-[(3,4-Dichlorobenzyl)oxy]benzoyl}-5-{[4-oxo-6-(trifluoromethyl)-1,2,3-benzotriazin-3(4H)-yl]methyl}cyclopentanecarboxylic acid [Example 28]
IC50 [1]: 300 nM
IC50 [2]: 700 nM
IC50 [3]: 17000 nM

COc1cccc(COc2ccc(C(=O)[C@H]3CC[C@@H](Cn4nnc5ccc(C)cc5c4=O)[C@@H]3C(=O)O)cc2)c1 (racemic) [Example 106, (+/−)-(1RS,2RS,5SR)-2-{4-[(3-Methoxybenzyl)oxy]benzoyl}-5-[(6-methyl-4-oxo-1,2,3-benzotriazin-3(4H)-yl)methyl]cyclopentanecarboxylic acid]
IC50 [1]: 190 nM
IC50 [2]: 270 nM
IC50 [3]: 12000 nM

O=C(O)[C@H]1[C@H](Cn2nnc3ccccc3c2=O)CC[C@@H]1C(=O)c1ccc(OCc2ccc(Cl)c(Cl)c2)cc1 (racemic) [Example 3, (+/−)-(1RS,2RS,5SR)-2-{4-[(3,4-Dichlorobenzyl)oxy]benzoyl}-5-[(4-oxo-1,2,3-benzotriazin-3(4H)-yl)methyl]cyclopentanecarboxylic acid]
IC50 [1]: 4900 nM
IC50 [2]: 190 nM
IC50 [3]: 16000 nM

Cc1ccc2nnn(C[C@H]3CC[C@@H](C(=O)c4ccc(OCc5ccccc5)cc4)[C@@H]3C(=O)O)c(=O)c2c1 (single isomer, unassigned) [Example 92, (+)-(1RS,2RS,5SR)-2-[4-(Benzyloxy)benzoyl]-5-[(6-methyl-4-oxo-1,2,3-benzotriazin-3(4H)-yl)methyl]cyclopentanecarboxylic acid]
IC50 [1]: 110 nM
IC50 [2]: 47 nM
IC50 [3]: 3100 nM

Cc1ccc2nnn(C[C@H]3CC[C@@H](C(=O)c4ccc(OCc5cccc(Cl)c5)cc4)[C@@H]3C(=O)O)c(=O)c2c1 (single isomer, unassigned) [Example 104, (+)-(1RS,2RS,5SR)-2-{4-[(3-Chlorobenzyl)oxy]benzoyl}-5-[(6-methyl-4-oxo-1,2,3-benzotriazin-3(4H)-yl)methyl]cyclopentanecarboxylic acid]
IC50 [1]: 270 nM
IC50 [2]: 220 nM
IC50 [3]: 3900 nM

(+)-(1RS,2RS,5SR)-2-{4-[Cyclohexyl)methyl)sulphanyl]benzoyl}-5-{[4-oxo-6-(trifluoromethyl)-1,2,3-benzotriazin-3(4H)-yl]methyl}cyclopentanecarboxylic acid [Example 86]
IC50 [1]: 1000 nM
IC50 [2]: 4800 nM
IC50 [3]: 27000 nM

CCCCCCOc1ccc(C(=O)[C@@H]2CC[C@H](Cn3nnc4ccc(C)cc4c3=O)[C@H]2C(=O)O)cc1 (single isomer, unassigned) [Example 121, (+)-(1RS,2RS,5SR)-2-[4-(Hexyloxy)benzoyl]-5-[(6-methyl-4-oxo-1,2,3-benzotriazin-3(4H)-yl)methyl]cyclopentanecarboxylic acid]
IC50 [1]: 350 nM
IC50 [2]: 280 nM
IC50 [3]: 13000 nM

O=C(O)[C@H]1[C@H](Cn2nnc3ccccc3c2=O)CC[C@@H]1C(=O)c1ccc(OCC2CCCC2)cc1 (racemic) [Example 4, (+/−)-(1RS,2RS,5SR)-2-[4-(Cyclopentylmethoxy)benzoyl]-5-[(4-oxo-1,2,3-benzotriazin-3(4H)-yl)methyl]cyclopentanecarboxylic acid]
IC50 [1]: 2200 nM
IC50 [2]: 84 nM
IC50 [3]: 28000 nM

O=C(O)[C@@H]1[C@@H](Cn2nnc3ccc(C(F)(F)F)cc3c2=O)CC[C@H]1C(=O)c1ccc(OCc2cccc(Cl)c2)cc1 (single isomer, unassigned) [Example 23, (+)-(1RS,2RS,5SR)-2-{4-[(3-Chlorobenzyl)oxy]benzoyl}-5-{[4-oxo-6-(trifluoromethyl)-1,2,3-benzotriazin-3(4H)-yl]methyl}cyclopentanecarboxylic acid]
IC50 [1]: 500 nM
IC50 [2]: 1600 nM
IC50 [3]: 24000 nM

O=C(O)[C@H]1[C@H](Cn2nnc3ccc(C(F)(F)F)cc3c2=O)CC[C@@H]1C(=O)c1ccc(OCc2ccccc2)cc1 (racemic) [Example 11, (+/−)-(1RS,2RS,5SR)-2-[4-(Benzyloxy)benzoyl]-5-{[4-oxo-6-(trifluoromethyl)-1,2,3-benzotriazin-3(4H)-yl]methyl}cyclopentanecarboxylic acid]
IC50 [1]: 87 nM
IC50 [2]: 210 nM
IC50 [3]: 3800 nM
